Source: patent US8507219B2, “Method of treating inflammation with statins” (MUSC Foundation for Research Development, priority 1997, dated 2013)

Columns and labels:
[1] = test system: NO production in rat C6 glial cells; assay: LPS-/cytokine-induced NO production (nitrite) in C6 glial cells; format: cell-based; conditions: 2 nM calyculin A along with LPS and cytokines, 24 h
PP 1/2A = assay: PP1/2A activity in homogenates of LPS-treated astrocytes; format: cell-based, rat; conditions: LPS 1.0 μg/ml, 30 min; okadaic acid 0-20 nM
Procedure: In vitro PP1/2A assay The extraction and assay for PP1/2A were performed as described (Begum and Ragolia, 1996). Control and treated cells were scraped off the dishes with 0.3 ml of phosphatase extraction buffer containing 20 mM imidazole-HCl, 2 mM EDTA, 2 mM EGTA, pH 7.0, with 10 μg/ml each of aprotinin, leupeptin, antipain, soybean trypsis inhibitor, 1 mM benzamide, and 1 mM PMSF. The cells were sonicated for 10 s and centrifuged at 2000×g for 5 min, and the supernatants were used for the assay of phosphatase activities using the protein phosphatase assay kit (Life Technologies, Inc.) according to the manufacturer's protocol.

iNOS = assay: Expression of iNOS protein (immunoblot) and mRNA (Northern) in rat primary astrocytes; format: cell-based; conditions: LPS 1.0 μg/ml
Procedure: (§1) Immunoblot analysis for iNOS Following 24 h incubation in the presence or absence of stimuli by different cytokines or LPS, macrophages were scraped off, washed with Hank's buffer, and homogenized in 50 mM Tris-HCl (pH 7.4) containing protease inhibitors (1 nM PMSF, 5 μg/ml aprotinin, 5 μg/ml pepstatin A, and 5 μg/ml leupeptin). After electrophoresis the proteins were transferred onto a nitrocellulose membrane, and the iNOS band was visualized by immunoblotting with antibodies against mouse macrophage iNOS and [^125I]-labeled protein A (Singh et al., 1988).
RNA isolation, Northern blot analysis, and reverse-transcriptase coupled polymerase chain reaction (RT-PCR) Stimulated peritoneal macrophages were taken out from culture dishes directly by adding Ultraspec-II RNA reagent (Biotecx Laboratories Inc.) and total RNA was isolated according to the manufacturer's protocol. For northern blot analyses, 20 μg of total RNA was electrophoresed on 1.2% denaturing formaldehyde-agarose gels, electrotransferred to Hybond-Nylon Membrane (Amersham) and hybridized at 68° C. with ^32P-labeled cDNA probe using Express Hyb hybridization solution (Clontech) as described by the manufacturer. […]; After hybridization filters were washed two to three times in solution I (2×SSC, 0.05% SDS) for 1 h at room temperature followed by solution II (0.1×SSC, 0.1% SDS) at 50° C. for another hour. The membranes were then dried and exposed to X-ray film (Kodak). The same filters were stripped and rehybridized with probes for GAPDH. The relative mRNA content for iNOS was measured after scanning the bands with a Biorad (Model GS-670) imaging densitometer.
as §1, with “of” for “of stimuli by”, “stimuli, cells” for “cytokines or LPS, macrophages”, “inhibitors.” for “inhibitors (1 nM PMSF, 5 μg/ml aprotinin, 5 μg/ml pepstatin A, and 5 μg/ml leupeptin).”, “A.” for “A (Singh et al., 1988).”
RNA isolation and Northern blot analysis Cells were taken out from culture dishes directly by adding Ultraspec-II RNA reagent (Biotecx Laboratories Inc.) and total RNA was isolated according to the manufacturer's protocol. For Northern blot analyses, 20 μg of total RNA was electrophoresed on 1.2% denaturing formaldehyde-agarose gels, electrotransferred to Hybond-Nylon Membrane (Amersham) and hybridized at 68° C. with ^32P-labeled cDNA probe using Express Hyb hybridization solution (Clontech) as described by the manufacturer. […]; After hybridization filters were washed two or three times in solution I (2×SSC, 0.05% SDS) for one hour at room temperature followed by solution II (0.1×SSC, 0.1% SDS) at 50° C. for another hour. The membranes were then dried and exposed with X-ray films (Kodak). The same filters were stripped and rehybridized with probes for GAPDH. The relative mRNA content for iNOS was measured after scanning the bands with a Biorad (Model GS-670) imaging densitometer.
as §1, with “After a” for “Following”, “of” for “of stimuli by”, “stimuli, cells” for “cytokines or LPS, macrophages”, “mM” for “nM”, “A.” for “A (Singh et al., 1988).”
RNA isolation and Northern blot analysis Cells were taken out from culture dishes directly by adding Ultraspec-II RNA reagent (Biotecx Laboratories Inc., Houston, Tex.), and total RNA was isolated according to the manufacturer's protocol. […]

[2] = test system: NO production in rat resident macrophages; assay: LPS-/cytokine-induced NO production (nitrite) in rat resident peritoneal macrophages; format: cell-based; conditions: LPS 1.0 μg/ml, 24 h
Procedure: Isolation of Rat Macrophages and Induction of NO Production Resident macrophages were obtained from rats by peritoneal lavage with sterile RPMI 1640 medium containing 1% fetal bovine serum and 100 μg/ml gentamicin (Wang et al., 1995). Cells were washed three times with RPMI 1640 at 4° C. All cell cultures were maintained at 37° C. in a humidified incubator containing 5% CO2 in air. Macrophages, at a concentration of 2×10^6/ml in RPMI 1640 medium containing L-glutamine and gentamicin, were added in volumes of 800 μl to a 35 mm plate. After 1 h, nonadherent cells were removed by washing and 800 μl of serum-free RPMI 1640 medium with various stimuli were added to the adherent cells. After 24 h incubation in 5% CO2 in air at 37° C., the culture supernatants were transferred to measure NO production (Geng et al., 1995; Wang et al., 1995).
Isolation of rat macrophages and induction of NO production Resident macrophages were obtained from rat by peritoneal lavage with sterile RPMI 1640 medium containing 1% fetal bovine serum and 100 μg/ml gentamicin as described herein. Cells were washed three times with RPMI 1640 at 4° C. All cell cultures were maintained at 37° C. in a humidified incubator containing 5% CO2 in air. Macrophages at a concentration of 2×10^6/ml in RPMI 1640 medium containing L-glutamine and gentamicin were added in volumes of 800 μl to a 35 mm plate. After 1 h, nonadherent cells were removed by washing and 800 μl of serum-free RPMI 1640 medium with various stimuli were added to the adherent cells. After incubation in 5% CO2 in air at 37° C., culture supernatants were transferred to measure NO production.
Isolation of rat macrophages and induction of NO production Resident macrophages were obtained from rat by peritoneal lavage with sterile RPMI 1640 medium containing 1% FBS and 100 μg/ml gentamicin. Cells were washed three times with RPMI 1640 at 4° C., and were maintained at 37° C. in a humidified incubator containing 5% CO2 in air. Macrophages at a concentration of […] in RPMI 1640 medium containing L-glutamine and gentamicin were added in volumes of 800 μl to a 35-mm plate. After 1 h, nonadherent cells were removed by washing, and 800 μl of serum-free RPMI 1640 medium with various stimuli was added to the adherent cells. After 24 h the culture supernatants were transferred to measure NO production.
Protein was measured (Bradford, 1976).

[3] = test system: murine macrophage cell line RAW 264.7; assay: LPS-/cytokine-induced NO production and iNOS protein in RAW 264.7; format: cell-based; conditions: 24 h
Procedure: Cells in this study were incubated in serum-free DMEM/F-12 received calyculin A along with LPS and cytokines. Samples tested included control, LPS+TNF-α, TNF-α+IFN-γ, TNF-α+IL-1β, LPS+TNF-α+calyculin A, TNF-α+IFN-γ+calyculin A, and TNF-α+IL-1β+calyculin A. After 24 h, concentration of nitrite (nmol/mg/24 h) was measured in the supernatants as described in Example 6. Data are mean±S.D. of three different studies. Cell homogenates were electrophoresed, transferred on […] against mouse macrophage iNOS as described.

[4] = test system: TNF-α production in rat primary astrocytes; assay: LPS-induced TNF-α production (ELISA) in rat primary astrocytes; format: cell-based; conditions: Astrocytes, LPS 1.0 μg/ml, 24 h
Procedure: Determination of TNF-α and IL-1β in culture supernatants Cells were stimulated with LPS in serum-free media for 24 h in the presence or absence of forskolin or rolipram, and concentrations of TNF-α and IL-1β were measured in culture supernatants by using high-sensitivity enzyme-linked immunosorbent assay (R&D Systems, USA) according to the manufacturer's instructions.

[5] = test system: TNF-α production in rat resident macrophages; assay: LPS-/IFN-γ-induced TNF-α production (ELISA) in rat macrophages; format: cell-based; conditions: Macrophages, LPS 1.0 μg/ml, 24 h
iNOS promoter [6] = assay: iNOS promoter-derived CAT activity in rat macrophages; format: cell-based; conditions: LPS 1.0 μg/ml, 14 h
Procedure: (§2) Construction of reporter plasmid, transfection and assay of chloramphenicol acetyl transferase activity The CAT (chloramphenicol acetyl transferase) under the control of nitric oxide synthase promoter (iNOS) was created by subcloning 1.5 kb promoter from pGEM-NOS at Sph I and Sal I restriction sites of pCAT-basic vector (Promega). […]. The cells were transfected by using the lipofectin (Life Technologies Inc., USA) method, as has been described in manufacturer's protocol, with 2 μg of reporter plasmid. They were then stimulated 24 h after transfection and harvested after 14 h of stimulation. CAT activity was measured as has been described.

iNOS promoter [7] = assay: iNOS promoter-derived CAT activity in rat primary astrocytes; format: cell-based; conditions: LPS 1.0 μg/ml, 14 h
Procedure: as §2

COC[C@@H]([C@H](O)[C@H](O)C(=O)NCC[C@H](C)c1nc(/C=C/C[C@@H]2O[C@]3(C[C@@H](O)[C@@H]2C)O[C@H]([C@H](C[C@H](O)[C@H](C)[C@H](O)[C@H](C)/C=C(C)/C(C)=C/C=C/C(C)=C\C#N)OC)[C@H](OP(=O)(O)O)C3(C)C)co1)N(C)C [Calyculin A]
stimulation of the production of NO [1]: more than three fold
activities of PP 1/2A (PP 1/2A): also inhibited the activities of PP 1/2A
LPS-mediated induction of iNOS protein and mRNA (iNOS): enhanced the LPS-mediated induction of iNOS protein and mRNA
LPS-induced NO production [2]: inhibited the LPS-induced NO production in rat peritoneal macrophages
LPS- and cytokine-induced production of NO and iNOS protein [3]: inhibit the LPS- and cytokine-induced production of NO and the expression of iNOS protein
TNF-α ([4]; inhibitor 1 nM): 12.5 ± 1.6 ng/24 h/mg protein
TNF-α ([4]; inhibitor 2 nM): 16.9 ± 2.1 ng/24 h/mg protein
TNF-α ([5]; inhibitor 1 nM): 27.5 ± 3.1 ng/24 h/mg protein
TNF-α ([5]; inhibitor 2 nM): 31.2 ± 3.6 ng/24 h/mg protein

C=C1[C@@H](O)[C@@H]2O[C@]3(CC[C@H](/C=C/[C@@H](C)[C@@H]4CC(C)=C[C@@]5(O[C@H](C[C@@](C)(O)C(=O)O)CC[C@H]5O)O4)O3)CC[C@H]2O[C@@H]1[C@@H](O)C[C@H](C)[C@H]1O[C@@]2(CCCCO2)CC[C@H]1C [Okadaic acid]
activities of PP 1/2A (PP 1/2A): dose-dependently inhibited the activities of PP 1/2A
LPS-induced iNOS promoter-derived CAT activity (iNOS promoter [6]): inhibited the LPS-induced CAT activity in macrophages
TNF-α ([4]; inhibitor 5 nM): 10.8 ± 1.2 ng/24 h/mg protein
TNF-α ([4]; inhibitor 10 nM): 14.6 ± 1.8 ng/24 h/mg protein
TNF-α ([5]; inhibitor 5 nM): 24.3 ± 1.9 ng/24 h/mg protein
TNF-α ([5]; inhibitor 10 nM): 28.9 ± 3.4 ng/24 h/mg protein
LPS-induced iNOS promoter-derived CAT activity (iNOS promoter [7]): stimulated the LPS-induced CAT activity in astrocytes
